Laboratory results taken from patent US7825107B2, “Method of treating men suffering from chronic nonbacterial prostatitis with SERM compounds or aromatase inhibitors” (Hormos Medical Ltd., priority 2006, dated 2010).

How the values were obtained:
[1] = tested on: effect of estradiol on the prostate (FRA2 or PR expression); experiment: Estrogen antagonist effect in the prostate of castrated Noble rats, with and without estradiol, measured by FRA2 or PR expression; assay type: in vivo; conditions: three weeks, 3, 10 and 30 mg/kg, with and without estradiol 70 ug/day
[2] = Estrogen antagonist treatment of prostatitis in rats treated with T and E2; assay type: in vivo; conditions: 3 weeks T 240 ug/day and E2 70 ug/day, 2 doses of 5 mg/kg on the third week
From the text: As prostatitis can be reversed by administering an antiestrogen, the condition is seen to be estrogen dependent.

## OCCOCCOc1ccc(/C(=C(/CCCl)c2ccccc2)c2ccccc2)cc1 [fispemifene]
[1]
  effect of estradiol on the prostate, measured by FRA2 or PR expression: dose dependently inhibited the effect of estradiol on the prostate

## C[C@]12CC[C@@H]3c4ccc(O)cc4C[C@@H](CCCCCCCCC[S+]([O-])CCCC(F)(F)C(F)(F)F)[C@H]3[C@@H]1CC[C@@H]2O (some centres unmarked) [fulvestrant]
[2]
  effect on prostatitis compared to the control group treated with T and E2 only: significantly reduced the prostatitis
